Data published in PubChem BioAssay AID588846 (Broad Institute, 2011).
Activity calls are given as the source filed them. No rule for the calls is given here.

test system: not listed separately; experiment: HMLE_shGFP background line viability loss – cell-based, CellTiter-Glo luminescence, dry powder, set 2, counter-screen for breast cancer stem cell killers, dose response (AID 588846); settings: HMLE_shGFP viability, CellTiter-Glo luminescence, 72 h; at 32 µM (top of the series)

SMILES	viability fraction
Cc1csc(NC(=O)c2ccc(CNc3ccccn3)o2)n1	80.2% (inactive)
CC(C)c1ccc(/C=C/C(=O)NC2=NCCS2)cc1	14% (inactive)
CCc1ccc(/C=C/C(=O)NC2=NCCS2)cc1	92.9% (inactive)
O=C(/C=C/c1ccc(Cl)c(Cl)c1)NC1=NCCS1	22.2% (inactive)
Cc1ccc(/C=C/C(=O)NC2=NCCS2)cc1	88.1% (inactive)
O=C(NC1CCCC1)c1ccc(COc2ccccc2)o1	95.7% (inactive)
O=C(/C=C/c1ccc(-c2ccccc2)cc1)NC1=NCCS1	13.7% (inactive)

test system: HMLE_shGFP viability, CellTiter-Glo luminescence, 72 h; experiment: as above; settings: not given

SMILES	AC50 [µM]
Cc1csc(NC(=O)c2ccc(COc3cccc(F)c3)o2)n1	4.4
COc1ccc(/C=C/C(=O)NC2=NCCS2)c(OC)c1	30
Cc1csc(NC(=O)c2ccc(COc3ccccc3F)o2)n1	0.36
